From PMC6627609, “Targeting Quorum Sensing: High-Throughput Screening to Identify Novel LsrK Inhibitors” (International Journal of Molecular Sciences, 2019) come the findings set out here.

Structures can show the parent of a compound that is named as a salt.

For one assay, the target named is LsrK (Salmonella typhimurium, UniProt Q8ZKQ6). The assay can be described thus: biochemical. Format: biochemical, S. typhimurium.
Chain of LsrK (Q8ZKQ6 whole entry): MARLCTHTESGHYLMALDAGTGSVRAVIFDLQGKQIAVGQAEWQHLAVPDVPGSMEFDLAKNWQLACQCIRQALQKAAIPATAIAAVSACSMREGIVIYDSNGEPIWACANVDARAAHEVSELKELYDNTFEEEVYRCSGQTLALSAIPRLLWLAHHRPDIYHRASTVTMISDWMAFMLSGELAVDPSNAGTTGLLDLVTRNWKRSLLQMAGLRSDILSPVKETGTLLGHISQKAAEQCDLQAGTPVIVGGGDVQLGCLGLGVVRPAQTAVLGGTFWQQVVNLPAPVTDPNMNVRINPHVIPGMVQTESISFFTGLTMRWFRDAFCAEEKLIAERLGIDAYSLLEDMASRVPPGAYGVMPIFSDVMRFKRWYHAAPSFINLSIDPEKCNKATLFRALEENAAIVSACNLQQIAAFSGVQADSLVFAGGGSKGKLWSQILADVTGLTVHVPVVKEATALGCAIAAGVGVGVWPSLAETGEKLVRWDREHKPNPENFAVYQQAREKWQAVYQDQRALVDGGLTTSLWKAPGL
Conditions: not given
`C[C@H]1C[C@H]2[C@@H]3CCC4=CC(=O)C=C[C@]4(C)[C@@]3(F)[C@@H](O)C[C@]2(C)[C@@]1(O)C(=O)CO` [BETAMETHASONE]: the inhibition at 50 µM was found to be 1%.
Still for that read-out and setting: under `O=C(O)CCNC(=O)c1ccccc1` [BETAMIPRON] stands 0%.
The same measure, in the same setting: the figure for `C=C(C)[C@@H]1CC[C@]2(CO)CC[C@]3(C)[C@H](CC[C@@H]4[C@@]5(C)CC[C@H](O)C(C)(C)[C@@H]5CC[C@]43C)[C@@H]12` [BETULIN] is 4%.
In the case of `CC(C)(Oc1ccc(CCNC(=O)c2ccc(Cl)cc2)cc1)C(=O)O` [BEZAFIBRATE], the inhibition at 50 µM turned out to be 2%.
On to `OC(CCN1CCCCC1)(c1ccccc1)C1CC2C=CC1C2` (centres unmarked) [BIPERIDEN], for which the inhibition at 50 µM amounted to 1%.
For the molecule `CCc1ccc2c(O)c3c(cc2c1C(=O)OC)C(=O)c1c(O)ccc(O)c1C3=O` [BISANHYDRORUTILANTINONE], the inhibition at 50 µM was 2%.
On the same count and under the same terms, the figure for `CC(C)NCC(O)COc1ccc(COCCOC(C)C)cc1` (centres unmarked) [BISOPROLOL FUMARATE] is 0%; for `COC(=O)/C=C/C(C)=C\C=C\C(C)=C\C=C\C=C(C)\C=C\C=C(C)\C=C\C(=O)O` [BIXIN] it is 79%; for `O=C(O)CC[N+](=O)[O-]` [BOVINOCIDIN (3-nitropropionic acid), 3-nitropropionic acid] it is 5%.
The same measure, in the same setting: under `O=C1C=C2CC3(O)COc4cc(O)ccc4C3=C2C=C1O` (centres unmarked) [BRAZILEIN] stands 66%.
The same measure, in the same setting: the figure for `Oc1ccc2c(c1)OC[C@]1(O)Cc3cc(O)c(O)cc3[C@H]21` [BRAZILIN] is 133%; for `CC1(C)CC2C1CC[C@]1(CBr)CCC3C(CC(=O)O)C(=O)O[C@@]32C1` (some centres unmarked) [BROMO-3-HYDROXY-4-(SUCCIN-2-YL)-CARYOLANE gamma-LACTONE] it is 1%.
With `O=C(CCCN1CCC(O)(c2ccc(Br)cc2)CC1)c1ccc(F)cc1` [BROMPERIDOL], the inhibition at 50 µM was determined as 1%.
With `CN(C)CCC(c1ccc(Br)cc1)c1ccccn1` (centres unmarked) [BROMPHENIRAMINE MALEATE], the inhibition at 50 µM stood at 1%.
Same read-out and setting: under `COc1cc2c(cc1OC)[C@@]13CCN4CC5=CCO[C@H]6CC(=O)N2[C@H]1[C@H]6[C@H]5C[C@H]43` [BRUCINE] stands 2%.
Regarding `CCOc1ccc(NC(=O)CC(C)O)cc1` (centres unmarked) [BUCETIN], the inhibition at 50 µM stood at 0%.
Same read-out and setting: the figure for `CCCC1O[C@@H]2C[C@H]3[C@@H]4CCC5=CC(=O)C=C[C@]5(C)[C@H]4[C@@H](O)C[C@]3(C)[C@]2(C(=O)CO)O1` (some centres unmarked) [BUDESONIDE] is 2%; for `CCCCNc1cc(C(=O)O)cc(S(N)(=O)=O)c1Oc1ccccc1` [BUMETANIDE] it is 1%; for `CCCCN1CCCCC1C(=O)Nc1c(C)cccc1C` (centres unmarked) [BUPIVACAINE HYDROCHLORIDE] it is 2%.
On the same count and under the same terms, under `CCCCN(CCCC)CCCOC(=O)c1ccc(N)cc1` [BUTACAINE] stands 3%; under `CC(=O)OC[C@@]1(O)C[C@@]23CC[C@@H]4c5ccoc5CC[C@@]4(C)[C@@H]2CC[C@@H]1C3` [CAFESTOL ACETATE], 1%.
Consider `CC[C@@]1(O)C(=O)OCc2c1cc1n(c2=O)Cc2cc3ccccc3nc2-1` [CAMPTOTHECIN], for which the inhibition at 50 µM worked out at 1%.
On the same count and under the same terms, the figure for `C[C@]12CCC(=O)C=C1C=C[C@@H]1[C@@H]2CC[C@@]2(C)[C@H]1CC[C@@]21CCC(=O)O1` [CANRENONE] is 1%; for `C[C@@]12C(=O)OC(=O)[C@]1(C)[C@H]1CC[C@@H]2O1` [CANTHARIDIN] it is 4%; for `COc1cc(CNC(=O)CCCC/C=C/C(C)C)ccc1O` [CAPSAICIN] it is 2%.
As for `CC1=C(/C=C/C(C)=C/C=C/C(C)=C/C=C/C=C(C)/C=C/C=C(C)/C=C/C(=O)[C@]2(C)C[C@@H](O)CC2(C)C)C(C)(C)C[C@H](O)C1` [CAPSANTHIN], the inhibition at 50 µM is 1%.
Still for that read-out and setting: the figure for `COC(=O)C[C@H]1C(C)(C)C(=O)[C@@H]2CC3C4=CC(=O)O[C@@H](c5ccoc5)[C@]4(C)CC[C@@H]3[C@@]1(C)C2=O` (some centres unmarked) [CARAPIN] is 2%; for `C[N+](C)(C)CCOC(N)=O` [CARBACHOL] it is 1%.
The same measure, in the same setting: under `COC(=O)N/N=C/c1c[n+]([O-])c2ccccc2[n+]1[O-]` [CARBADOX] stands 3%; under `C[C@@](Cc1ccc(O)c(O)c1)(NN)C(=O)O` [CARBIDOPA], 0%.
Same read-out and setting: under `Cc1c(C(=O)O)c(O)cc2c1C(=O)c1c(O)c([C@@H]3O[C@H](CO)[C@@H](O)[C@H](O)[C@H]3O)c(O)c(O)c1C2=O` [CARMINIC ACID] stands 6%; under `O=NN(CCCl)C(=O)NCCCl` [CARMUSTINE], 10%; under `CC(C)c1cc2c(c(O)c1O)[C@@]1(C(=O)O)CCCC(C)(C)[C@@H]1CC2` [CARNOSIC ACID], 2%.
For `NCCC(=O)N[C@@H](Cc1cnc[nH]1)C(=O)O` [CARNOSINE], the inhibition at 50 µM stood at 0%.
The same measure, in the same setting: the figure for `CC(C(=O)O)c1ccc2c(c1)[nH]c1ccc(Cl)cc12` (centres unmarked) [CARPROFEN] is 1%.
Consider `C[C@@H]1CC[C@H]2C(C)(C)[C@H]3C[C@@]12CC[C@@]3(C)O` [CEDROL], for which the inhibition at 50 µM was 13%.
On the same count and under the same terms, the figure for `N[C@@H](C(=O)N[C@@H]1C(=O)N2C(C(=O)O)=C(Cl)CS[C@H]12)c1ccccc1` [CEFACLOR] is 24%.
On to `CC1=C(C(=O)O)N2C(=O)[C@@H](NC(=O)[C@H](N)c3ccc(O)cc3)[C@H]2SC1` [CEFADROXIL], for which the inhibition at 50 µM turned out to be 1%.
As for `Cn1nnnc1SCC1=C(C(=O)O)N2C(=O)[C@@H](NC(=O)[C@H](OC=O)c3ccccc3)[C@H]2SC1` [CEFAMANDOLE NAFATE], the inhibition at 50 µM worked out at 1%.
Same read-out and setting: the figure for `Cn1nnnc1SCC1=C(C(=O)O)N2C(=O)[C@@H](NC(=O)[C@H](O)c3ccccc3)[C@H]2SC1` [CEFAMANDOLE SODIUM] is 15%; for `Cc1nnc(SCC2=C(C(=O)O)N3C(=O)[C@@H](NC(=O)Cn4cnnn4)[C@H]3SC2)s1` [CEFAZOLIN SODIUM] it is 1%.
On to `CCN1CCN(C(=O)N[C@@H](C(=O)N[C@@H]2C(=O)N3C(C(=O)O)=C(CSc4nnnn4C)CS[C@H]23)c2ccc(O)cc2)C(=O)C1=O` [CEFOPERAZONE SODIUM], for which the inhibition at 50 µM was determined as 0%.
The same measure, in the same setting: the figure for `CO/N=C(\C(=O)N[C@@H]1C(=O)N2C(C(=O)O)=C(COC(C)=O)CS[C@H]12)c1csc(N)n1` [CEFOTAXIME SODIUM] is 32%; for `CO[C@@]1(NC(=O)Cc2cccs2)C(=O)N2C(C(=O)O)=C(COC(N)=O)CS[C@@H]21` [CEFOXITIN SODIUM] it is 3%; for `COCC1=C(C(=O)OC(C)OC(=O)OC(C)C)N2C(=O)[C@@H](NC(=O)/C(=N\OC)c3csc(N)n3)[C@H]2SC1` (some centres unmarked) [CEFPODOXIME PROXETIL] it is 24%.
For the molecule `CC(C)(O/N=C(\C(=O)N[C@@H]1C(=O)N2C(C(=O)[O-])=C(C[n+]3ccccc3)CS[C@H]12)c1csc(N)n1)C(=O)O` [CEFTAZIDIME], the inhibition at 50 µM amounted to 70%.
On the same count and under the same terms, the figure for `Nc1nc(/C(=C/CC(=O)O)C(=O)N[C@@H]2C(=O)N3C(C(=O)O)=CCS[C@H]23)cs1` [CEFTIBUTEN] is 105%.
Regarding `CO/N=C(\C(=O)N[C@@H]1C(=O)N2C(C(=O)OC(C)OC(C)=O)=C(COC(N)=O)CS[C@H]12)c1ccco1` (some centres unmarked) [CEFUROXIME AXETIL], the inhibition at 50 µM was determined as 2%.
In the case of `CO/N=C(\C(=O)N[C@@H]1C(=O)N2C(C(=O)O)=C(COC(N)=O)CS[C@H]12)c1ccco1` [CEFUROXIME SODIUM], the inhibition at 50 µM amounted to 3%.
On the same count and under the same terms, the figure for `Cc1ccc(-c2cc(C(F)(F)F)nn2-c2ccc(S(N)(=O)=O)cc2)cc1` [CELECOXIB] is 1%; for `CC(=O)OCC1=C(C(=O)O)N2C(=O)[C@@H](NC(=O)Cc3cccs3)[C@H]2SC1` [CEPHALOTHIN SODIUM] it is 1%; for `O=C(O)COCCN1CCN(C(c2ccccc2)c2ccc(Cl)cc2)CC1` (centres unmarked) [CETIRIZINE HYDROCHLORIDE] it is 1%.

Staying with this assay, now noted: 50 µM.
Turning to `COc1ccc(-c2coc3cc(O)cc(O)c3c2=O)cc1` [BIOCHANIN A], the “Inhibition (%)” value came out at 25.
Still for that read-out and setting: the figure for `COc1cc(OC)c(C(=O)CCCN2CCCC2)c(OC)c1.Cl` [BUFLOMEDIL HYDROCHLORIDE] is 1.
As for `CCOc1nc2cccc(C(=O)OC(C)OC(=O)OC3CCCCC3)c2n1Cc1ccc(-c2ccccc2-c2nn[nH]n2)cc1` (centres unmarked) [CANDESARTAN CILEXTIL, reference compound], the “Inhibition (%)” value worked out at 101.
The same measure, in the same setting: the figure for `C[C@]12CCC(=O)C=C1C=C[C@@H]1[C@@H]2CC[C@@]2(C)[C@H]1CC[C@@]2(O)CCC(=O)[O-].[K+]` [CANRENOIC ACID. POTASSIUM SALT] is 0; for `CC1=C(/C=C/C(C)=C/C=C/C(C)=C/C=C/C=C(C)/C=C/C=C(C)/C=C/C2=C(C)C(=O)CCC2(C)C)C(C)(C)CCC1=O` [CANTHAXANTHIN (euglenanone), CANTHAXANTHIN] it is 2.
Turning to `CCCCCCCCCCCCCCC(C(=O)O)C(O)(CC(=O)OC)C(=O)O` (centres unmarked) [CAPERATIC ACID], the “Inhibition (%)” value is 8.
As for `C[N+](C)(C)CC(O)CC(=O)O.[Cl-]` (stereo not drawn) [CARNITINE (dl) HYDROCHLORIDE], the “Inhibition (%)” value was found to be 3.
As for `CO/N=C(\C(=O)N[C@@H]1C(=O)N2C(C(=O)OCOC(=O)C(C)(C)C)=C(/C=C\c3scnc3C)CS[C@H]12)c1csc(N)n1` [CEFDITORIN PIVOXIL], the “Inhibition (%)” value was 2.
`O=C([O-])C1=C(CSc2nnnn2CS(=O)(=O)[O-])CS[C@@H]2[C@H](NC(=O)[C@H](O)c3ccccc3)C(=O)N12.[Na+].[Na+]` [CEFONICID SODIUM]: the “Inhibition (%)” value is given as 0.
The same measure, in the same setting: the figure for `CO/N=C(/C(=O)N[C@@H]1C(=O)N2C(C(=O)[O-])=C(CSc3nc(=O)c([O-])nn3C)CS[C@H]12)c1csc(N)n1.O.O.O.[Na+].[Na+]` [CEFTRIAXONE SODIUM TRIHYDRATE] is 0.
Same read-out and setting: the figure for `OC[C@H]1O[C@@H](O[C@H]2[C@H](O)[C@@H](O)[C@H](O)O[C@@H]2CO)[C@H](O)[C@@H](O)[C@@H]1O` [CELLOBIOSE (D[+])] is 0.
The same measure, in the same setting: the figure for `CC(=O)OCC1=C(C(=O)[O-])N2C(=O)[C@@H](NC(=O)CCCC(N)C(=O)O)[C@H]2SC1.[Na+]` (some centres unmarked) [CEPHALOSPORIN C SODIUM] is 32.

The same assay, now with this note: read-out: IC50 against LsrK.
As for `CCOc1nc2cccc(C(=O)OC(C)OC(=O)OC3CCCCC3)c2n1Cc1ccc(-c2ccccc2-c2nn[nH]n2)cc1` (centres unmarked) [CANDESARTAN CILEXTIL, reference compound], the IC50 was 14 µM.

As usually defined, the inhibition is the drop in the measured response relative to a control, in per cent. The IC50 is the concentration that gives 50% inhibition.
